{"source": "patent US20100036088A1", "about": "“Selective poly-N-substituted glycine antibiotics” (priority 2008, published 2010)", "key": {"human erythrocytes": {"system": "human erythrocytes", "experiment": "Hemolysis assay", "assay_type": "cell-based", "summary_of_the_method": "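Human erythrocytes from fresh heparinised blood, 20 vol % in PBS pH 7.4, mixed 1:1 with 2-fold serial peptoid dilutions; PBS as 0% and 0.2 vol % Triton X-100 as 100% hemolysis. Incubated 1 h at 37 °C, diluted, centrifuged 1200 g for 15 min; supernatant A350 read.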"}, "[1]": {"system": "A549 lung epithelial cells", "experiment": "MTS assay, metabolic inhibition", "procedure": "The biocompatibility of selected oligomers with A549 lung epithelial cells was evaluated using the MTS [3-(4,5-dimethylthiazol-2-yl)-5-(3-carboxymethoxyphenyl)-2-(4-sulfophenyl)-2H-tetrazolium] assay.\nMTS Assays. A549 carcinoma-derived lung epithelial cells (ATTC CCL-185) were cultured in Ham's F12K media (ATTC, Manassas, Va.). A peptoid solution plate (100 μL/well) was prepared by serial dilution of aqueous peptoid stocks in media. Peptoid solutions were transferred onto a 96-well plate of day-old cell monolayers containing 100 μL/well media with ˜5000 cells/well. MTS reagent (Promega Corporation, Madison, Wis.) (40 μL/well) was added to each well and the plate was incubated at 37° C. for 3 h, after which absorbance at 490 nm was determined. Percent inhibition was determined as [1−(A−Atest blank)/(Acontrol−Ablank)]×100, where A is the absorbance of the test well and Acontrol the average absorbance of wells with cells exposed to media and MTS (no peptoid). Atest blank (media, MTS, and peptoid) and Ablank (media and MTS) were background absorbances measured in the absence of cells. The average of six replicates are reported, and error bars show one standard deviation."}, "E. coli JM109": {"system": "E. coli JM109", "assay_type": "cell-based", "text": "(§1) An initial set of 15 ampetoid analogs was synthesized to determine whether peptoids are affected by structural and sequence modifications in a manner consistent with AMP activities. The designs for ampetoids in this library were derived from two antibacterial and selective amphipathic dodecamers, 1 and 2. Peptoid 1 [H-(Nlys-Nspe-Nspe)4—NH2] is composed of 2/3 Nspe, the peptoid analog of phenylalanine, and 1/3 Nlys, the peptoid analog of lysine (see FIG. 1 for the structures of representative peptoid monomers and corresponding N-substituents). Peptoid 2 [H-(Nlys-Nssb-Nspe)4—NH2] contains 1/3 isoleucine-like Nssb monomers in place of Nspe. The variant sequences were designed to effect changes in chirality, length, hydrophobicity, charge, and amphipathicity. All of these compounds were tested for antibacterial activity against representative BSL1 Gram-negative (E. coli JM109) and Gram-positive (B. subtilis BR151) bacterial strains. As an initial measure of selectivity, the lytic activity of the peptoids was determined against human erythrocytes. Table 1 summarizes the sequences synthesized, the solvent composition at RP-HPLC elution as a relative measure of molecular hydrophobicity, and antibacterial and hemolytic activities.\n(§2) Antibacterial assays. MICs were determined according to CLSI M7-A6 protocols in a 96-well microtiter plate. In test wells, 50 μL bacterial inoculum (5×10^5 CFU/ml) in Mueller-Hinton broth (MHB) was added to 50 μL peptoid solution in MHB (prepared by 1:2 serial dilutions). Positive controls contained 50 μL inoculum and 50 μL MHB without peptoid. […] MIC values reported were reproducible between three independent experimental replicates, each consisting of two parallel trials. Broad-spectrum antimicrobial susceptibility testing was performed against BSL2 pathogens by Nova Biologicals, Inc. (Conroe, Tex.)."}, "E. coli (ATCC 35218)": {"system": "E. coli (ATCC 35218)", "assay_type": "cell-based", "settings": "ATCC 35218", "summary_of_the_method": "(§3)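 MICs by broth microdilution per CLSI M7-A6 in cation-adjusted Mueller-Hinton broth, using 2:1 serial dilutions of peptoid and a bacterial inoculum of 1×10^6 CFU/mL. Values reproducible over three experiments, each with two parallel trials.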"}, "B. subtilis (ATCC 6633)": {"system": "B. subtilis (ATCC 6633)", "assay_type": "cell-based", "settings": "ATCC 6633", "summary_of_the_method": "as §3"}, "[2]": {"system": "Staphyloccus aureus (ATCC #25923)", "experiment": "Murine intraperitoneal infection model", "assay_type": "in vivo", "settings": "mouse, 4 mg/kg I.P.; eleven mice treated with 1-Nhis6,12", "procedure": "Using a murine peritoneal injection mouse model, the ability of peptoids to treat infection was evaluated in vivo. The results from three separate studies of peptoid 1 and two of peptoid 1-Nhis6,12 against saline treated controls are shown in FIG. 7. The horizontal line represents the geometric mean of each population.\nMurine intraperitoneal infection model. Bacteria was prepared by inoculating 5 mL of MHB with a single colony of Staphyloccus aureus (ATCC #25923) from a freshly streaked plate and grown overnight at 37 C. The following morning, the bacteria was subcultured by diluting 1/3 in MHB and grown for approximately 1.5 hours. The bacteria were then diluted 10-fold in a 5% mucin in PBS solution and thoroughly mixed. A sample was reserved to later determine the amount of bacteria the mice received.\nMice were weighed, marked, and injected I.P. with 200 uL of S. aureus inoculum. Four hours post infection, mice were treated I.P. with 4 mg/kg peptoid (˜100 ug per mouse). The infection is allowed to proceed overnight. Mice were euthanized by CO2 asphyxiation after 24 hours, and the peritoneal cavity was exposed and lavaged with 5 mL PBS. The lavage was mixed and reserved on ice until plating. […] Colonies were counted the following day, and the CFU/ml of each sample was calculated. […]"}, "B. subtilis BR151": {"system": "B. subtilis BR151", "assay_type": "cell-based", "settings": "Table 1", "text": "as §1, §2"}}, "note": "Square brackets hold non-standard residues; d marks the D form. Peptide text beside a SMILES is read from it. Gly(N-CH2CH2-imidazol-4-yl) = O=C(O)CNCCc1c[nH]cn1; Nspe = C[C@H](NCC(=O)O)c1ccccc1; Nlys = NCCCCNCC(=O)O", "data": [{"smiles": "C[C@@H](c1ccccc1)N(CC(=O)N(CCc1cnc[nH]1)CC(=O)N(CCCCN)CC(=O)N(CC(=O)N(CC(=O)N(CCCCN)CC(=O)N(CC(=O)N(CCc1cnc[nH]1)CC(N)=O)[C@@H](C)c1ccccc1)[C@@H](C)c1ccccc1)[C@@H](C)c1ccccc1)C(=O)CN(CCCCN)C(=O)CN(C(=O)CN(C(=O)CNCCCCN)[C@@H](C)c1ccccc1)[C@@H](C)c1ccccc1", "note": "[1-Nhis6,12] (H-[Nlys][Nspe][Nspe][Nlys][Nspe][Gly(N-CH2CH2-imidazol-4-yl)][Nlys][Nspe][Nspe][Nlys][Nspe][Gly(N-CH2CH2-imidazol-4-yl)]-NH2)", "values": [{"measurement": "HD10", "setting": "human erythrocytes", "value": ">110/>110 μM"}, {"measurement": "HD50", "setting": "human erythrocytes", "value": ">110/>110 μM"}, {"measurement": "HD10 (10% hemolytic dose)", "setting": "human erythrocytes; red cells of human, 1 h", "value": ">110/>110 μM"}, {"measurement": "HD50 (50% hemolytic dose)", "setting": "human erythrocytes; red cells of human, 1 h", "value": ">110/>110 μM"}, {"measurement": "ID10 relative to that of pexiganan", "setting": "[1]", "value": 20, "unit": "times"}, {"measurement": "MICs", "setting": "E. coli JM109; JM109", "value": "< 7", "unit": "µM"}, {"measurement": "E. coli MIC", "setting": "E. coli (ATCC 35218)", "value": ">50", "unit": "µM"}, {"measurement": "B. subtilis MIC", "setting": "B. subtilis (ATCC 6633)", "value": 1.6, "unit": "µM"}, {"measurement": "mice that died prematurely during the exposure period", "setting": "[2]", "value": "eight"}]}, {"smiles": "C[C@H](c1ccccc1)N(CC(N)=O)C(=O)CN(C(=O)CN(CCCCN)C(=O)CN(C(=O)CN(C(=O)CN(CCCCN)C(=O)CN(C(=O)CN(C(=O)CN(CCCCN)C(=O)CN(C(=O)CN(C(=O)CNCCCCN)[C@H](C)c1ccccc1)[C@H](C)c1ccccc1)[C@H](C)c1ccccc1)[C@H](C)c1ccccc1)[C@H](C)c1ccccc1)[C@H](C)c1ccccc1)[C@H](C)c1ccccc1", "note": "[1enantiomer]", "values": [{"measurement": "HD10 (10% hemolytic dose)", "setting": "human erythrocytes; Table 1, human erythrocytes", "value": 16, "unit": "µM"}, {"measurement": "HD50 (50% hemolytic dose)", "setting": "human erythrocytes; Table 1, human erythrocytes", "value": 86, "unit": "µM"}, {"measurement": "E. coli MIC", "setting": "E. coli JM109; Table 1, E. coli JM109", "value": 3.5, "unit": "µM"}, {"measurement": "B. subtilis MIC", "setting": "B. subtilis BR151", "value": 0.88, "unit": "µM"}]}, {"smiles": "C[C@@H](c1ccccc1)N(CC(N)=O)C(=O)CN(C(=O)CN(CCCCN)C(=O)CN(C(=O)CN(C(=O)CN(CCCCN)C(=O)CN(C(=O)CN(C(=O)CN(CCCCN)C(=O)CN(C(=O)CN(C(=O)CN(CCCCN)C(=O)CN(C(=O)CN(C(=O)CNCCCCN)[C@@H](C)c1ccccc1)[C@@H](C)c1ccccc1)[C@@H](C)c1ccccc1)[C@@H](C)c1ccccc1)[C@@H](C)c1ccccc1)[C@@H](C)c1ccccc1)[C@@H](C)c1ccccc1)[C@@H](C)c1ccccc1)[C@@H](C)c1ccccc1", "note": "[115 mer, H-(Nlys-Nspe-Nspe)5-NH2]", "values": [{"measurement": "HD10 (10% hemolytic dose)", "setting": "human erythrocytes; red cells of human, 1 h", "value": 3, "unit": "µM"}, {"measurement": "HD50 (50% hemolytic dose)", "setting": "human erythrocytes; red cells of human, 1 h", "value": 19, "unit": "µM"}, {"measurement": "cytotoxicity (in words)", "setting": "[1]; A549 cells, MTS assay, FIG. 2", "value": "no worse than pexiganan"}]}]}
